Article PMC11123039, “The Helix Ring Peptide U11 from the Venom of the Ant, Tetramorium bicarinatum, Acts as a Putative Pore-Forming Toxin” (Membranes, 2024)

Experiments:
[1] = system: Shaker IR; test: Two-electrode voltage clamp, Shaker IR; format: cell-based, Drosophila melanogaster; conditions: control toxin, 2.5 μM; Xenopus laevis oocytes, ND96, two-electrode voltage clamp
[2] = system: vertebrate and invertebrate cells; conditions: component of Apis mellifera venom; cited from earlier work
Description: Ant venom peptides have previously been classified based on their structure into three main groups: linear, dimeric or inhibitor cystine knot (ICK)-like peptides [for a review, see [2]]. An alternative approach for classification follows their biological activity, with two main characteristics: cytolytic or neurotoxic. […] Such a phenomenon is indicative of cytolysis or cytotoxicity and may be explained by pore formation. […] In non-injected control oocytes, the current ...

[3] = system: voltage-gated sodium (Nav) channels; conditions: vertebrates and invertebrates; blocks synaptic transmission in insect CNS; cited from earlier work
Description: Ant venom peptides have previously been classified based on their structure into three main groups: linear, dimeric or inhibitor cystine knot (ICK)-like peptides [for a review, see [2]]. An alternative approach for classification follows their biological activity, with two main characteristics: cytolytic or neurotoxic. […] They often act as amphipathic, helical structures forming pores through biological membranes, disturbing t ...

Substance: charybdotoxin
- block of Shaker IR currents [1]: clear block

Substance: melittin
- cytolysis via pore formation [2]: cytolysis via a process of pore formation

Substance: poneratoxin
- modulation of Nav channels [3]: modulate voltage-gated sodium (Nav) channels of both vertebrates and invertebrates
